7 compounds from patent publication US8877720B2, “Epirubicin derivatives” (Tianjin Hemay Bio-Tech Co., Ltd., priority 2009, dated 2014) can be followed below.

Data set [1] deals with HL-60 cells. As to the kind of experiment: Cytotoxicity assay (MTS/MTT), HL-60 cells. In kind it is cell-based, human. The note with it: for Inhibition Ratio (%): HL-60 cells, concentration of 1 μM. The procedure:
(§1) Cytotoxicity Assay (MTS Assay)
HL-60: human leukemia cell strains
(§2) Cells were inoculated in RPMI 1640 cell culture solution with 10% fetal bovine serum (supplemented with 100 ku/L of penicillin, streptomycin, respectively). The petri dishes were left in a cell incubator containing 5% CO2 under the temperature of 37° C. The medium was changed every 2-3 days, and was digested with 0.25% trypsin solution. The cells were subcultured and collected.
(§3) The cells in the exponential phase were formulated into cell suspensions with desired concentrations using RPMI 1640 cell culture solutions containing 10% fetal bovine serum. The suspensions were added into 96-well cell culture plates according to 3,000-5,000 cells per well (100 μl). After being cultured for 24 hr, 100 μl of assay compounds having different concentrations were added into each well. Four parallel tests were conducted for each well. The supernatants were discarded after being cultured for 72-120 hr. 100 μl of 0.5 mg/ml MTT fresh serum-free culture solutions were added into each well. The resultant supernatants were discarded after being cultured for 4 hr at 37° C. Formazan was dissolved with 200 μl DMSO. The resulting mixture was gently shaken for 15 min. Optical absorption values (OD-values) at 570 nm of detection wavelength and 450 nm of reference wavelength were measured with ELISA reader.
(§4) The data were represented by x±s. Inhibition Ratio=(OD values in control groups−OD values in administration groups)/OD values in control groups×100%. Anti-cancer effects were represented by maximum inhibition ratio Imax and inhibitory concentration 50 (IC50). Drawings were obtained with software MicroCal Origin. Inhibition curves of assay compounds for inhibiting the growth of tumor cells were fitted by the four-parameter program Logistic in the software so as to give the inhibitory concentration 50 (IC50:μg/ml) for inhibiting the proliferation of tumor cells.
The exposure concentrations of the assay compounds were 0.001 μg/ml, 0.003 μg/ml, 0.009 μg/ml, 0.027 μg/ml, 0.082 μg/ml, 0.247 μg/ml, 0.741 μg/ml, 2.222 μg/ml, 6.667 μg/ml and 20 μg/ml. The exposure concentrations of adriamycin (as positive drugs) were 1.25 μg/ml, 5 μg/ml and 20 μg/ml. In 96-well plates, 3,000-5,000 cells were inoculated in each well. Four parallel assays were conducted for each concentration.

In data set [2] the test system is PC-3 Cells. The data set can be described thus: Cytotoxicity assay (MTS/MTT), PC-3 cells. The data set is classed as cell-based, human. The settings on record: for IC50: PC-3 Cells, read-out: Inhibitory Concentration 50 for Cell Growth (IC50). The procedure: as §1
PC-3: human prostate cancer cell strains
as §2, §3
The data were represented by x±s. Inhibition Ratio=(OD values in control groups−OD values in administration groups)/OD values in control groups×100%. Anti-cancer effects were represented by maximum inhibition ratio Imax and inhibitory concentration 50 (IC50). Drawings were obtained with software MicroCal Origin. Inhibition curves of assay compounds for inhibiting the growth of tumor cells were fitted by the four-parameter program Logistic in the software so as to give the inhibitory concentration 50 (IC50:μg/ml) for inhibiting the proliferation of tumor cells. […]

In data set [3] the test system is A431 Cells. As to the kind of experiment: Cytotoxicity assay (MTS/MTT), A431 cells. The data set is classed as cell-based, human.
Description: A431: epidermoid cell strains
For data set [4], the system named is THP-1. The data set can be described thus: Cytotoxicity assay (MTS/MTT), THP-1 cells. The data set is classed as cell-based, human. The note with it: read-out: Inhibitory Concentration 50 for Cell Growth (IC50).
Description: THP-1: human leukemia cell strains
Data set [5] relates to U937 Cells. As to the kind of experiment: Cytotoxicity assay (MTS/MTT), U937 cells. In kind it is cell-based, human. The settings on record: for IC50: U937 Cells, read-out: Inhibitory Concentration 50 for Cell Growth (IC50). The procedure:
as §1
U937: human lymphoma cell strains
as §2, §3, §4
The exposure concentrations of the assay compounds were 0.001 μg/ml, 0.003 μg/ml, 0.009 μg/ml, 0.027 μg/ml, 0.082 μg/ml, 0.247 μg/ml, 0.741 μg/ml, 2.222 μg/ml, 6.667 μg/ml and 20 μg/ml. […]

The test system of data set [6] is NCI H460. As to the kind of experiment: Cytotoxicity assay (MTS/MTT), NCI-H460 cells. The data set is classed as cell-based, human. The note with it: read-out: Inhibitory Concentration 50 for Cell Growth (IC50).
Description: NCI-H460: human lung cancer cell strains
Data set [7] has as its system NCI H446. The data set can be described thus: Cytotoxicity assay (MTS/MTT), NCI-H446 cells. The data set is classed as cell-based, human. The settings on record: read-out: Inhibitory Concentration 50 for Cell Growth (IC50). The procedure: as §1
NCI-H446: human lung cancer cell strains
as §2, §3
(§5) The data were represented by x±s. […]

Data set [8] relates to K562. The data set can be described thus: Cytotoxicity assay (MTS/MTT), K562 cells. In kind it is cell-based, human. The procedure:
as §1
K562: human leukemia cell strain
as §2, §3, §5

Data set [9] relates to Hep G2. The data set can be described thus: Cytotoxicity assay (MTS/MTT), Hep G2 cells. The settings on record: read-out: Inhibitory Concentration 50 for Cell Growth (IC50). The data set is classed as cell-based, human. The procedure:
as §1
HePG-2: human liver cancer cell strains
as §2, §3, §5

The test system of data set [10] is A549. The data set can be described thus: Cytotoxicity assay (MTS/MTT), A549 cells. The data set is classed as cell-based, human. The procedure: as §1
A549: human lung cancer cell strains
as §2, §3, §5

For data set [11], the system named is 786-O. As to the kind of experiment: Cytotoxicity assay (MTS/MTT), 786-O cells. The data set is classed as cell-based, human. The procedure:
as §1
786-O: human kidney cancer cell strains
as §2, §3, §5

The test system of data set [12] is DU-145. The data set can be described thus: Cytotoxicity assay (MTS/MTT), DU-145 cells. In kind it is cell-based, human. The settings on record: read-out: Inhibitory Concentration 50 for Cell Growth (IC50). The procedure: as §1
DU-145: human prostate cancer cell strains
as §2, §3, §5

Data set [13] concerns Kunming mice. The data set can be described thus: Maximum tolerated dose (MTD) in vivo of mice. The procedure:
Assays on Maximum Tolerated Dose (MTD) In Vivo of Mice
(1) Assay animals: 9 Kunming Mice, of which five were male and four were female, with a weight of 20-22 g (purchased from Lab Animals Center of Chinese Academy of Medical Sciences, License No. scxk (jin) 2005-0001)
(2) Assay medicine: compound in Example 1
Kunming mice were 9, of which 5 were male and 4 were female. Each mouse was administered the compound in Example 1 (20 mg/kg, iv) with a dose volume of 20 ml/kg.
The process for preparing a solution of the compound in Example 1: 4.53 mg of the compound in Example 1 was weighed and dissolved by adding 40 μL of DMSO (dimethylsulfoxide). 340 μL of RH40 (polyoxyethylene castor oil) were added. After mixing homogeneously, 4.156 mL of physiological saline was added to the mixture. After mixing homogeneously, the mixture was filtered with 0.45 μm filter membrane to give a 1 mg/ml solution of the compound in Example 1.
Observation time: 14 days
Observation indicators: weight, appearance, breath, action, reflection, defecation

Where [14] appears, read: 20 mg/kg via tail vein, observed for 14 days.
Setting [15] is: single intravenous injection 20 mg/kg, 9 mice, 14 days observation.

Where two headings read alike, the source gives them in different places.

As to `COc1cccc2c1C(=O)c1c(O)c3c(c(O)c1C2=O)C[C@@](O)(C(=O)CO)C[C@@H]3O[C@H]1C[C@H](n2cccc2)[C@@H](O)[C@H](C)O1` [Example 1, 3′-pyrrolyl epirubicin], the IC50 in data set [1] (HL-60, read-out: Inhibitory Concentration 50 for Cell Growth (IC50)) turned out to be 357 nM; in data set [2], 10 nM; in data set [3] (read-out: Inhibitory Concentration 50 for Cell Growth (IC50)) it was 6.3 nM; in data set [4], 9 nM; in data set [5], 12 nM; in [6], 14 nM. The IC50 came to 160 nM in [7]; 44 nM in data set [8] (K562, read-out: Inhibitory Concentration 50 for Cell Growth (IC50)); 27 nM in data set [9]; 206 nM in [10] (A549, read-out: Inhibitory Concentration 50 for Cell Growth (IC50)); 74 nM in data set [11] (786-O, read-out: Inhibitory Concentration 50 for Cell Growth (IC50)); 8.6 nM in data set [12]. Further, the “Inhibition Ratio (%)” value in data set [1] turned out to be 80%. Moreover, the “Effect on growth of tumor cell strain” value in [2] (human prostate cancer PC-3), in data set [5] (lymphoma U937), in data set [8] (human leukemia K562), in data set [10] (lung cancer A549) and in data set [11] (kidney cancer 786-0) was “strong inhibitory effects” in each case. Besides, the “Findings on dissection at the end of the test” value in data set [13] (20 mg/kg via tail vein, dissected after 14 days) was “no abnormal phenomena were observed”. In addition, the “Change on the weights of the mice” value in data set [13] (setting [14]) is reported as “no significant change on the weights”. Moreover, in [13] (setting [14]), the “Death of mice” value is on record as “no animal died”. In addition, the “Other indicators (appearance, breath, action, reflection, defecation)” value in data set [13] (setting [14]) is reported as “not obviously abnormal”. The “Death Number” value in data set [13] (setting [15]) is 0. Further, the “Mortality Rate (%)” value in [13] (setting [15]) is given as 0%. Moreover, the “Average Weight (g) of Mice” value in data set [13] (single intravenous injection 20 mg/kg, Day 1) was 20.9 g; in data set [13] (single intravenous injection 20 mg/kg, Day 2) it was 20.2 g; in data set [13] (single intravenous injection 20 mg/kg, Day 3), 20.4 g; in data set [13] (single intravenous injection 20 mg/kg, Day 5), 19.7 g; in data set [13] (single intravenous injection 20 mg/kg, Day 6) it was 20.2 g; in data set [13] (single intravenous injection 20 mg/kg, Day 7) it was 19.8 g. The “Average Weight (g) of Mice” value in data set [13] (single intravenous injection 20 mg/kg, Day 8) was 20.0 g; in [13] (single intravenous injection 20 mg/kg, Day 9), 20.1 g; in data set [13] (single intravenous injection 20 mg/kg, Day 10) it was 20.5 g; in data set [13] (single intravenous injection 20 mg/kg, Day 11) it was 20.4 g; in data set [13] (single intravenous injection 20 mg/kg, Day 12) it was 20.4 g; in data set [13] (single intravenous injection 20 mg/kg, Day 13), 20.8 g. In addition, in data set [13] (single intravenous injection 20 mg/kg, Day 14), the “Average Weight (g) of Mice” value came to 21.1 g.

Regarding `COc1cccc2c1C(=O)c1c(O)c3c(c(O)c1C2=O)C[C@@](O)(C(=O)CO)C[C@@H]3O[C@H]1C[C@H](N)[C@@H](O)[C@H](C)O1` [Epirubicin], the IC50 came to 110 nM in [2] (Homo sapiens); 18 nM in data set [3] (Homo sapiens, A-431, read-out: Inhibitory Concentration 50 for Cell Growth (IC50)); 67 nM in data set [4] (Homo sapiens); 10 nM in [5] (Homo sapiens, U-937); 25 nM in data set [6] (Homo sapiens).

Regarding `COc1cccc2c1C(=O)c1c(O)c3c(c(O)c1C2=O)CC(O)(C(=O)CO)CC3OC1CC(N2C(=O)CCC2=O)C(O)C(C)O1` (centres unmarked) [Example 4, 3′-succinimidyl epirubicin], the “Inhibition Ratio (%)” value in data set [1] stood at 62%.

As to `COc1cccc2c1C(=O)c1c(O)c3c(c(O)c1C2=O)C[C@@](O)(C(=O)CO)C[C@@H]3O[C@H]1C[C@H](N2C(=O)c3ccccc3C2=O)[C@@H](O)[C@H](C)O1` [Example 8, 3′-(benzo-(2,3)succinimidyl)epirubicin], the “Inhibition Ratio (%)” value in data set [1] was determined as 71%.

`COc1cccc2c1C(=O)c1c(O)c3c(c(O)c1C2=O)C[C@@](O)(C(=O)CO)C[C@@H]3O[C@H]1C[C@H](N2C(=O)C=CC2=O)[C@@H](O)[C@H](C)O1` [Example 6, 3′-maleimidyl epirubicin]: the “Inhibition Ratio (%)” value in data set [1] came out at 43%.

Regarding `COc1cccc2c1C(=O)c1c(O)c3c(c(O)c1C2=O)CC(O)(C(=O)CO)CC3OC1CC(N2C(=O)CCCC2=O)C(O)C(C)O1` (centres unmarked) [Example 5, 3′-glutarimido epirubicin], the “Inhibition Ratio (%)” value in [1] amounted to 35%.

With `COc1cccc2c1C(=O)c1c(O)c3c(c(O)c1C2=O)C[C@@](O)(C(=O)CO)C[C@@H]3O[C@H]1C[C@H](N2C(=O)c3cccnc3C2=O)[C@@H](O)[C@H](C)O1` [Example 7, 3′-(pyridino-(2,3)succinimidyl)epirubicin], in data set [1], the “Inhibition Ratio (%)” value worked out at 10%.
